From US20080114079A1, “TRPM2-specfic inhibitors” (priority 2006, published 2008) come the findings set out here.

Data set [1] in a line: HPLC analysis of catabolites after incubation with bone marrow neutrophils. In kind it is in vitro ADME, mouse. As for the experimental part:
HPLC analysis of catabolites produced by CD38-expressing cells. […] The supernatants were collected after centrifugation, concentrated and flash frozen. Aliquots were analyzed by reversed-phase HPLC (Kontron Instruments) using a Multohyp BDS C18 column (250 mm×4.6 mm, particle size 5 μm, Chromatographie Service). Absorbance was measured at 270 nm using a UV detector (Kontron 432) and data were processed by the MT2 data acquisition system from Kontron Instruments. Peaks were identified by comparison to known standards and the area under each curve was quantified to determine relative amounts of each metabolite.

Data set [2] deals with mouse bone marrow neutrophils. The data set is described as follows: Transwell chemotaxis assay, mouse bone marrow neutrophils. In kind it is cell-based. As for the experimental part:
(§1) Chemotaxis assays. Chemotaxis assays were performed as previously described (Partida-Sanchez, S. et al., 2001 Nature Medicine 7:1209-1216; Partida-Sanchez S. et al., 2004 Immunity 20:279-291). […] Treated cells (1×10^6 neutrophils or 1×10^5 DCs) were added to the upper chamber of the transwell (3-μm for neutrophils or 5-μm for DCs) (Costar). After incubating the chambers for 45 min (neutrophils) or 90 min (DCs) at 37° C., the transmigrated cells were collected from the lower chamber, fixed, and counted on a flow cytometer. The results are expressed as the mean ±SD of the chemotaxis index (CI) for triplicate wells. The CI represents the fold-change in the number of untreated or inhibitor-pretreated cells that migrated in response to the chemoattractant divided by the basal migration of untreated or antagonist pretreated cells migrating in response to control medium.

For data set [3], the system named is human neutrophils. The data set is described as follows: Transwell chemotaxis assay, human peripheral blood neutrophils. In kind it is cell-based. The following applies: 100 μM, 15 min, A5 peptide 1 μM. Here is the method: as §1
Data set [4] deals with mouse DCs. The data set is described as follows: Ca2+ mobilization assay in chemokine-stimulated DCs. In kind it is cell-based. The conditions noted are these: 100 μM, 15 min, CXCL12 50 ng/ml. As for the experimental part:
(§2) Ca^2+ mobilization assays. Bone marrow neutrophils (1×10^7/ml) and DCs (1×10^6/ml) were loaded with a mixture of Fluo-3 AM and Fura-Red AM as previously described (Partida-Sanchez, S. et al., 2001 Nature Medicine 7:1209-1216; Partida-Sanchez S. et al., 2004 Immunity 20:279-291). […] The accumulation of intracellular free Ca^2+ was assessed by flow cytometry by measuring the fluorescence emission of Fluo-3 in the FL-1 channel and Fura-Red in the FL-3 channel over time. Data were analyzed using FlowJo 4.0 software (Tree Star). Relative intracellular free Ca^2+ levels are expressed as the ratio between Fluo-3 and Fura-Red mean fluorescence intensity.

For data set [5], the system named is mouse bone marrow neutrophils. The data set is described as follows: Ca2+ mobilization assay in chemoattractant-stimulated bone marrow neutrophils (flow cytometry, Fluo-3/Fura-red). Format: cell-based. The conditions noted are these: 100 μM, 15 min. As for the experimental part:
as §2
In general terms: A change in cytosolic calcium serves as a functional read-out for many receptors and channels.

The test system of data set [6] is bone marrow-derived immature or TNFα-matured DCs. The data set is described as follows: Transwell chemotaxis assay, bone marrow-derived DCs. Format: cell-based, mouse. The following applies: 100 μM, 15 min pretreatment. As for the experimental part: as §1
The subject of data set [7] is mouse bone marrow neutrophils. The data set is described as follows: Oxidant (H2O2)-induced Ca2+ influx in bone marrow neutrophils. In kind it is cell-based. The following applies: 100 μM, 15 min, H2O2 100 μM. As for the experimental part:
as §2

Data set [8] addresses T1, TRPM2 channels (Homo sapiens, UniProt O94759).
T1 construct: All experiments were performed at room temperature with Jurkat T lymphocytes attached to high molecular weight poly-L-lysin; endogenous in cells; host or cells: Jurkat T lymphocytes
The data set is described as follows: Whole-cell patch-clamp of ADPR-gated cation entry in TRPM2-expressing Jurkat T cells. In kind it is cell-based. The following applies: 300 μM ADPR in the pipette, -60 mV. Background: The patch-clamp technique gives a direct electrical read-out from membranes.
Description: Electrophysiology. […] An EPC9 patch-clamp amplifier was used in conjunction with the PULSE stimulation and data acquisition software (HEKA Elektronik). The patch electrodes were made from 1.5 mm diameter borosilicate glass capillaries and filled with intracellular solution. Data were low-pass filtered at 1 kHz and compensated for both fast and slow capacity transients. Series resistance was compensated by 50-90%. All experiments were performed at room temperature with Jurkat T lymphocytes attached to high molecular weight poly-L-lysin. The pipette solution contained 145 mM K-glutamate, 8 mM NaCl, 1 mM MgCl2 and 10 mM EGTA, adjusted to pH 7.2 with KOH and to a free Ca^2+ concentration of 100 nM with CaCl2. […] The external solution contained 145 mM NaCl, 2 mM MgCl2, 1 mM CaCl2, 2.8 mM KCl, 10 mM HEPES and 10 mM glucose, adjusted to pH 7.2 with NaOH. The cells were held at −60 mV and I-V relations were obtained every 20 sec using 250 ms voltage ramps from −100 to +100 mV.

Setting [9] is: 100 μM, 15 min, fMLP 1 μM, 45 min.
[10] abbreviates: fMLP 1 μM, Ca2+-containing media.

Entries after “also recorded” stand apart in the source; their conditions may differ.

T1 sequence (O94759 whole entry): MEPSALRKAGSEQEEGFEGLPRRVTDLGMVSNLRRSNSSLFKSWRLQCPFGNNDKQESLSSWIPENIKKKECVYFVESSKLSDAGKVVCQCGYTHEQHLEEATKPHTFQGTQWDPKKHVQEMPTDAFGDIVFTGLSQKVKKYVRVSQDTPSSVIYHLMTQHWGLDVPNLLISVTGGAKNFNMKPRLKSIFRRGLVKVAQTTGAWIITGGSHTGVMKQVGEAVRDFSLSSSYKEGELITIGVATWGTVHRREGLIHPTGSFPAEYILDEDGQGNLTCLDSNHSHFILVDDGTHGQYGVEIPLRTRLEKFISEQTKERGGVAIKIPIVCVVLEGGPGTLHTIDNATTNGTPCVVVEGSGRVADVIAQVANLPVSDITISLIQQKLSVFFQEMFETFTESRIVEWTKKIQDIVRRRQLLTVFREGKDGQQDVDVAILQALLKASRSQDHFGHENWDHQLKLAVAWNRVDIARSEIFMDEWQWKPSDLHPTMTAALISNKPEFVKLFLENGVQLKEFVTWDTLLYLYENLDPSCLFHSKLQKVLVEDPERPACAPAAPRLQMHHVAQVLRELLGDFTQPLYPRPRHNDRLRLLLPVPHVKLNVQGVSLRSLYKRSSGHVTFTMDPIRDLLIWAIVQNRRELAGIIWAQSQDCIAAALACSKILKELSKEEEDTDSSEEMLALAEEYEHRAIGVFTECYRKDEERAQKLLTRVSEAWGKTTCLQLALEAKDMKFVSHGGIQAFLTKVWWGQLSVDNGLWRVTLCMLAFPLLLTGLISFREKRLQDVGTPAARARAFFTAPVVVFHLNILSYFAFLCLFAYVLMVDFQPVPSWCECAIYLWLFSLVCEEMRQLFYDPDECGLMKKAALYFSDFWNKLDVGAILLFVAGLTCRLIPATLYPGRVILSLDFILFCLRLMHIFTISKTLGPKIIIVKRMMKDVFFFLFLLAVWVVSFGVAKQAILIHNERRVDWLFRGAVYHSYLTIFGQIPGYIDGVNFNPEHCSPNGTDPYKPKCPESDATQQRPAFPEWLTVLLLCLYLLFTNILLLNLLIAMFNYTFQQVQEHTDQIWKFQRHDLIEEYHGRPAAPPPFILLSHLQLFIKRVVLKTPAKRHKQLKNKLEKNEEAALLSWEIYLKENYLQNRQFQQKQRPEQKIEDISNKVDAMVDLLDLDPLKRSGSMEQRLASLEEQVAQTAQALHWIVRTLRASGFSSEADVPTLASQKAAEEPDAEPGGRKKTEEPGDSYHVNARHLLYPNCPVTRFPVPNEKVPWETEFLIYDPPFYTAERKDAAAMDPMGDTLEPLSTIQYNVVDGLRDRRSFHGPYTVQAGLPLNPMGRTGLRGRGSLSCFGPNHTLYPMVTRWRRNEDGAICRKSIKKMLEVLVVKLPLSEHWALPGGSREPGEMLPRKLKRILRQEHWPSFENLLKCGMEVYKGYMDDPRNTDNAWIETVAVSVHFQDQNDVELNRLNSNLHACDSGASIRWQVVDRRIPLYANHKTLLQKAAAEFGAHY

As usually defined, the IC50 is the concentration that gives 50% inhibition. As to 8Br-cADPR, in data set [1], the “catabolism on incubation with CD38KO (Cd38-/-) neutrophils” value is “remained largely unchanged” and the “stability in the absence of any cells” value was “remained intact”. Moreover, the IC50 in data set [2] (0-100 μM, 15 min, fMLP 1 μM, read-out: IC50 on chemotaxis of fMLP-stimulated mouse neutrophils) fell in the range of 1 to 5 µM. Besides, in data set [2] (setting [9]), the “effect on chemotactic response of WT neutrophils to fMLP” value is on record as “effectively blocked chemotaxis; also recorded: significantly inhibited”. For the same compound, the “effect on chemotactic response of neutrophils to IL-8” value in data set [2] (100 μM, IL-8 100 nM, 45 min) was “neither 8Br-ADPR nor 8Br-cADPR blocked”. In addition, the “effect on chemotactic response of CD38KO (Cd38-/-) neutrophils to fMLP” value in data set [2] (15 min, fMLP 1 μM) is on record as “no further inhibition”. Besides, in data set [3], the “effect on migration of human neutrophils to FPRL1 ligand A5 peptide” value is on record as “effectively inhibited”. For the same compound, the “effect on Ca2+ response of CXCL12-stimulated immature DCs” value in data set [4] was “blocked”. Besides, the “effect on intracellular Ca2+ release after IL-8” value in data set [5] (IL-8 100 nM, Ca2+ free buffer (EGTA 2 mM)) is “had no effect”. Also, the “effect on IL-8 induced Ca2+ response” value in data set [5] (IL-8 100 nM, Ca2+-containing media) is recorded as “neither compound had any effect”. Besides, in data set [5] (fMLP 1 μM, Ca2+ free buffer (EGTA 2 mM)), the “decrease of intracellular Ca2+ release in fMLP-stimulated neutrophils” value is “approximately 25%”. For the same compound, the “effect on extracellular Ca2+ influx in fMLP-stimulated WT neutrophils” value (“effect on extracellular Ca2+ influx” below) in data set [5] (setting [10]) is listed as “significantly decreased”. Besides, in data set [6], the “chemotactic response of TNFα-matured DCs to CCL21” value is given as “neither the immature nor mature DCs migrated efficiently” and the “chemotactic response of immature DCs to CXCL12” value is “neither the immature nor mature DCs migrated efficiently”.
Take `Nc1ncnc2c1nc(Br)n2[C@@H]1O[C@H](COP(=O)(O)O)[C@@H](O)[C@H]1O` [8Br-AMP]: the “effect on extracellular Ca2+ influx” value in data set [5] (setting [10]) is given as “had absolutely no effect; also recorded: does not block”.
For `NC(=O)c1ccc[n+]([C@@H]2O[C@H](COP(=O)([O-])OP(=O)(O)OC[C@H]3O[C@@H](n4c(Br)nc5c(N)ncnc54)[C@H](O)[C@@H]3O)[C@@H](O)[C@H]2O)c1` [8Br-NAD^+], the “stability in the absence of any cells” value in data set [1] is on record as “remained intact”. Besides, in data set [2] (setting [9]), the “effect on chemotactic response of WT neutrophils to fMLP” value is “significantly inhibited”. For the same compound, the “effect on chemotactic response of Parp1-/- neutrophils to fMLP” value in data set [2] (100 μM, 15 min, fMLP 1 μM, Parp1-/-) is listed as “inhibited”. For the same compound, the “effect on chemotactic response of CD38KO (Cd38-/-) neutrophils to fMLP” value in data set [2] (15 min, fMLP 1 μM) is reported as “no further inhibition”. Also, the “effect on extracellular Ca2+ influx” value in data set [5] (setting [10]) is listed as “significantly reduced”. Further, the “effect on Ca2+ influx in fMLP-stimulated Parp1-/- neutrophils” value in data set [5] (fMLP 1 μM, Parp1-/-) is on record as “significantly reduced”. Besides, in data set [7], the “effect on H2O2-induced Ca2+ influx in WT neutrophils” value is recorded as “had no effect”.
With adenosine diphosphate ribose [ADPR], the “membrane current on infusion into Jurkat cells” value in data set [8] is recorded as “caused a slowly developing inward current”.
